Entries after “also recorded” stand apart in the source; their conditions may differ. Where a SMILES comes first, the peptide text is derived from it. The star is where a group is joined. Cbz = O=C(OCc1ccccc1)*
Tests used:
IDH1 and IDH2 [1] = assay: Immunoblot of IDH1 and IDH2 after MG132 or MLN4924, RWPE1 cells; type: cell-based; conditions: 10 μM for 8 hours
Method: RWPE1 cells were incubated with 10 μM MG132 or MLN4924 for 8 hours, followed by immunoblot analysis of IDH1 and IDH2. FIG. 16B are immunoblots showing that IDH1 specifically interacts with Cullin 1 in cells. Immunoblot analysis of immunoprecipitates (IP) and whole cell lysates (WCL) derived from HEK293 cells transfected with Flag-IDH1 and the indicated Myc-tagged Cullins for 48 hours. FIG. 16C are immunoblots showing that IDH1 specifically interacts with two F-box proteins, Skp2, and to a lesser extent, Fbw4, in cells. Immunoblot analysis of IP and WCL derived from HEK293 cells transfected with Flag-IDH1 and the indicated CMV-GST-tagged F-box proteins for 48 hours. FIG. 16D are immunoblots showing depletion of SKP2 in HeLa cells leads to accumulated IDH1. […] The labeled glycolytic intermediates were measured using HPLC-MS. n=3, * p<0.05, ** p<0.01, ***p<0.001. […] The labeled TCA cycle intermediates were measured using HPLC-MS. n=3, * p<0.05, ** p<0.01, *** p<0.001.
(§1) Cells were lysed in EBC buffer (50 mM Tris pH 7.5, 120 mM NaCl, 0.5% NP-40) supplemented with protease inhibitors (cOmplete Mini, Roche) and phosphatase inhibitors (phosphatase inhibitor cocktail set I and II, Calbiochem). The protein concentrations of the lysates were measured using the Bio-Rad protein assay reagent on a Beckman Coulter DU-800 spectrophotometer. […]

IDH1 and IDH2 [2] = assay: Fractionation of cytoplasm, mitochondria and nuclei with immunoblot, 22Rv1 cells; type: cell-based, human; conditions: 10 μM for 24 hours
Method: (§2) LNCaP cells were treated with 0, 1, 3, 10 or 30 μM SKPin C1 for 24 hours, harvested for immunoblot analysis of indicated proteins. […] 22Rv1 cells were treated with 10 μM SKPin C1 for 24 hours, harvested for fraction of cytoplasm (C), mitochondria (M), and nuclei (N), followed by immunoblot analysis of indicated proteins. FIG. 11C is a graph showing depletion of endogenous ID111 or IDH2 abolishes the effect of SKPin C1 on OCR. HAP1-IDH1^−/−, IDH2^−/− and parental cells were treated with 3 μM SKPin C1 for 24 hours, followed by OCR analysis by Seahorse XF 24 analyzer. The concentration of oligomycin, FCCP and antimycin A are 1 μM, 0.6 μM and 3 μM, respectively (mean±s.e.m, n=3). […] HAP1-Skp2^+/+ and Skp2^−/− cells were treated with indicated SKPin C1 for 24 hours, followed by immunoblot analysis for indicated proteins. […] Statistical analysis, ** p<0.01. […] Statistical analysis, * p<0.05, ** p<0.01. […] HAP1-Skp2^+/+ and Skp2^−/− cells were treated with 1 μM SKPin C1 for 24 hours, followed by ECAR analysis by Seahorse XF 24 analyzer. […] HAP1-Skp2^+/+ and Skp2^−/− cells were treated with 1 μM SKPin C1 for 24 hours, followed by OCR analysis by Seahorse XF 24 analyzer. The concentration of oligomycin, FCCP and antimycin A are 1 μM, 0.6 μM and 3 μM, respectively (mean±s.e.m, n=3, ** p<0.01, *** p<0.001).
Cells were harvested and subjected to fractionation of cytoplasm (C), mitochondria (M), and nuclei (N) using Cell Fractionation kit (ab109719, Abcam). All fractions and the whole cell lysate (WCL) were subjected to immunoblot analysis for the indicated proteins, with tubulin, citrate synthase, and Histone H3 as markers of cytoplasm, mitochondria, and nucleus, respectively.

HAP1 cells [3] = assay: Seahorse XF24 oxygen consumption rate (OCR) analysis, HAP1 cells; type: cell-based, human
Method: as §2, with “The concentration of oligomycin, FCCP and antimycin A are 1 μM, 0.6 μM and 3 μM, respectively (mean±s.e.m, n=3, ** p<0.01, *** p<0.001).” left out
(§3) Oxygen consumption rate (OCR) and extracellular acidification rate (ECAR) were measured using Seahorse XF24 analyzer (Boston, Mass., USA). […]

IDH1 and IDH2 [4] = assay: Immunoblot of IDH1 and IDH2 in HAP1-Skp2+/+ and Skp2-/- cells; type: cell-based, human; conditions: 24 hours
Method: (§4) LNCaP cells were treated with 0, 1, 3, 10 or 30 μM SKPin C1 for 24 hours, harvested for immunoblot analysis of indicated proteins. […] 22Rv1 cells were treated with 10 μM SKPin C1 for 24 hours, harvested for fraction of cytoplasm (C), mitochondria (M), and nuclei (N), followed by immunoblot analysis of indicated proteins. FIG. 11C is a graph showing depletion of endogenous ID111 or IDH2 abolishes the effect of SKPin C1 on OCR. HAP1-IDH1^−/−, IDH2^−/− and parental cells were treated with 3 μM SKPin C1 for 24 hours, followed by OCR analysis by Seahorse XF 24 analyzer. The concentration of oligomycin, FCCP and antimycin A are 1 μM, 0.6 μM and 3 μM, respectively (mean±s.e.m, n=3). […] HAP1-Skp2^+/+ and Skp2^−/− cells were treated with indicated SKPin C1 for 24 hours, followed by immunoblot analysis for indicated proteins. […] Statistical analysis, ** p<0.01. […] Statistical analysis, * p<0.05, ** p<0.01. […]
as §1

IDH1 and IDH2 [5] = assay: Immunoblot of IDH1 and IDH2 after SKPin C1 treatment, 22-Rv1 cells; type: cell-based, human; conditions: 22-Rv1 cells, 0, 1, 3, 10, or 30 μM for 24 hours
Method: (§5) 22-Rv1 cells were treated with 0, 1, 3, 10, or 30 μM SKPin C1 for 24 hours, and then harvested for immunoblot analysis. […] LNCaP and 22-Rv1 cells were plated in 6-well plate (1500 cell/well), treated with 0, 0.1, 0.3, or 1 μM Skin C1 for 7 days, and changed to fresh media for another 3 weeks. […] HAP1-IDH1^−/−, HAP1-IDH2^−/− and parental cells were treated with 3 μM SKPin C1 for 24 hours, followed by OCR analysis by Seahorse XF 24 analyzer. * p<0.05.
HeLa and HCT116 cells were used for synchronization. HeLa cells, which have low endogenous Skp2 activity, were used for ectopic expression-based degradation assays. HEK293 cell line was used for ubiquitination assays and co-IP assays to define the interaction between two ectopically expressed proteins, which is the most frequently used cell line for this type of experiment. Human prostate cancer cells, DU145, PC3, LNCaP, VCaP, 22Rv1 and C4-2 were used for compared endogenous Skp2 and IDH1 levels, as well as Skp2 knockdown and Skp2 overexpression. […]
as §1

HAP1 cells [6] = assay: Seahorse XF24 extracellular acidification rate (ECAR) analysis, HAP1 cells; type: cell-based, human; conditions: 1 μM for 24 hours
Method: LNCaP cells were treated with 0, 1, 3, 10 or 30 μM SKPin C1 for 24 hours, harvested for immunoblot analysis of indicated proteins. […] 22Rv1 cells were treated with 10 μM SKPin C1 for 24 hours, harvested for fraction of cytoplasm (C), mitochondria (M), and nuclei (N), followed by immunoblot analysis of indicated proteins. FIG. 11C is a graph showing depletion of endogenous ID111 or IDH2 abolishes the effect of SKPin C1 on OCR. HAP1-IDH1^−/−, IDH2^−/− and parental cells were treated with 3 μM SKPin C1 for 24 hours, followed by OCR analysis by Seahorse XF 24 analyzer. The concentration of oligomycin, FCCP and antimycin A are 1 μM, 0.6 μM and 3 μM, respectively (mean±s.e.m, n=3). […] HAP1-Skp2^+/+ and Skp2^−/− cells were treated with indicated SKPin C1 for 24 hours, followed by immunoblot analysis for indicated proteins. […] Statistical analysis, ** p<0.01. […] Statistical analysis, * p<0.05, ** p<0.01. […] HAP1-Skp2^+/+ and Skp2^−/− cells were treated with 1 μM SKPin C1 for 24 hours, followed by ECAR analysis by Seahorse XF 24 analyzer. […] HAP1-Skp2^+/+ and Skp2^−/− cells were treated with 1 μM SKPin C1 for 24 hours, followed by OCR analysis by Seahorse XF 24 analyzer. […]
as §3

LNCaP cells = assay: Colony formation assay, LNCaP cells; type: cell-based, human; conditions: 1500 cell/well, 0, 0.1, 0.3, or 1 μM for 7 days, fresh media another 3 weeks
Method: as §5
(§6) Cells were cultured in 10% FBS containing DMEM or RPMI-1640 media before plating into 6-well plate at 10,000 cells (3,000 cells for HeLa) per well. Ten days later, cells were fixed with 10% acetic acid/10% methanol for 10 min, stained with 0.4% crystal violet/20% ethanol, followed by counting the colony numbers. For soft agar assays, cells were seeded in 0.4% low-melting-point agarose in DMEM or RPMI-1640 with 10% FBS at 100,000 per well (30,000 cells for HeLa), layered onto 0.8% agarose in DMEM or RPMI-1640 with 10% FBS. The plates were kept in the cell culture incubator for 3-4 weeks after which the cells were stained with iodonitrotetrazolium chloride and colonies were counted.

22-Rv1 cells = assay: Colony formation assay, 22-Rv1 cells; type: cell-based, human; conditions: 22-Rv1, 1500 cell/well, 0, 0.1, 0.3, or 1 μM for 7 days, fresh media another 3 weeks
Method: as §5, §6

IDH1 and IDH2 [7] = assay: Immunoblot of IDH1 and IDH2 after SKPin C1 treatment, LNCaP cells; type: cell-based, human; conditions: LNCaP cells, 0, 1, 3, 10 or 30 μM for 24 hours
Method: as §4, §1

With `CC(C)C[C@@H](C=O)NC(=O)[C@H](CC(C)C)NC(=O)[C@H](CC(C)C)NC(=O)OCc1ccccc1` [MG132] (Cbz-Leu-Leu-Leu-aldehyde) the “IDH1 and IDH2 protein abundance (immunoblot)” value (IDH1 and IDH2 [1]) was “elevated; also recorded: accumulation of IDH1 and IDH2”.

With `O=C(O)COc1ccc(Br)cc1/C=C1\SC(=S)N(Cc2cccnc2)C1=O` [SKPin C1] the “IDH1 localization after treatment” value (IDH1 and IDH2 [2]) was “mainly localized in the cytoplasmic fraction regardless of SKPin C1 treatment”, the “IDH2 localization after treatment” value (IDH1 and IDH2 [2]) was “detected in the cytoplasmic fraction” and the “IDH1 and IDH2 protein abundance in cell fractions” value (IDH1 and IDH2 [2]; cytoplasm/mitochondria/nuclei fractions) was “accumulated protein abundance of IDH1 and IDH2 in cytoplasm”. For the same molecule, the “Effect on OCR in HAP1-Skp2+/+ and Skp2-/- cells” value (HAP1 cells [3]; 1 μM for 24 hours) was “depletion of Skp2 abolishes the effect of SKPin C1 on OCR”, the “Effect on OCR in HAP1-IDH1-/-, HAP1-IDH2-/- and parental cells” value (HAP1 cells [3]; 3 μM for 24 hours) was “depletion of endogenous IDH1 or IDH2 abolishes the effects of SKPin C1 on OCR” and the “Effect on IDH1 and IDH2 in HAP1-Skp2+/+ and Skp2-/- cells” value (IDH1 and IDH2 [4]) was “depletion of Skp2 abolishes the effect of SKPin C1 on IDH1 and IDH2”. The “IDH1 and IDH2 protein abundance (immunoblot)” value (IDH1 and IDH2 [5]) was “significantly stabilized both IDH1 and IDH2; also recorded: robust accumulation of IDH1 and IDH2”, the “Effect on ECAR in HAP1-Skp2+/+ and Skp2-/- cells” value (HAP1 cells [6]) was “depletion of Skp2 abolishes the effect of SKPin C1 on ECAR” and the Colony growth (LNCaP cells) was “blocks the colony growth”. The Colony growth (22-Rv1 cells) was “blocks the colony growth” and the “IDH1 and IDH2 protein abundance (immunoblot)” value (IDH1 and IDH2 [7]) was “significantly stabilized both IDH1 and IDH2; also recorded: accumulated protein abundance of IDH1 and IDH2”.

`NS(=O)(=O)OC[C@@H]1C[C@@H](n2ccc3c(N[C@H]4CCc5ccccc54)ncnc32)C[C@@H]1O` [MLN4924] was tested, and the “IDH1 and IDH2 protein abundance (immunoblot)” value (IDH1 and IDH2 [1]) was “elevated; also recorded: accumulation of IDH1 and IDH2”.

— patent publication US20210052598A1, “COMPOSITIONS AND METHODS FOR TREATING CANCER” (Beth Israel Deaconess Medical Center, Inc., priority 2018, published 2021)
